Key:
[1] = tested on: intraocular pressure; assay: Acute IOP response in lasered (hypertensive) eyes of conscious cynomolgus monkeys; format: in vivo, cynomolgus monkey; settings: single topical ocular application of 300 μg; IOP at 1, 3 and 6 hours
Experimental: Acute IOP Response in Lasered (Hypertensive) Eyes of Conscious Cynomolgus Monkeys.
Intraocular pressure (IOP) was determined with an Alcon Pneumatonometer after light corneal anesthesia with 0.1% proparacaine. Eyes were washed with saline after each measurement. After a baseline IOP measurement, the test compound was instilled in one 30 μL aliquot to the right eyes only of nine cynomolgus monkeys. The vehicle was instilled in the right eyes of six additional animals. Subsequent IOP measurements were taken at 1, 3, and 6 hours.

[2] = Penetration of the cornea following topical ocular administration; format: in vivo
Source text: The use of topical ocular administration is therefore strongly preferred in the present invention.

[3] = tested on: fibronectin secretion by GTM-3 cells; assay: Inhibition of TM fibronectin secretion (ELISA of cell supernatants); format: cell-based, human; settings: 24 h, FIG. 5
Experimental: (§1) FIG. 5 depicts bar graphs showing the effect of lovastatin on GTM-3 cell fibronectin secretion and viability. Transformed human trabecular meshwork (GTM-3) cells were incubated in the presence or absence of test agents in serum-free DMEM media for 24 h (37° C., 5% CO2). Cell supernatants were then assayed for fibronectin content by ELISA and cell monolayers were assayed for viability by neutral red uptake.
(§2) The effect of lovastatin on both basal (vehicle) and stimulated (TGF32) GTM-3 (a transformed human TM cell strain) secretion of fibronectin was tested. GTM-3 cells were incubated in the presence or absence of test agents in serum-free media for 24 h (37° C., 5% CO2), then changes in secreted fibronectin levels were determined by ELISA of cell supernatants. Neutral red uptake assays were performed on the remaining cell monolayers, in order to determine the effect of test agents on GTM-3 cell viability. […] Thus, by virtue of the ability to reduce the excessive accumulation of extracellular matrix (e.g. fibronectin), statins are useful in the treatment of glaucoma and to control or lower IOP.

[4] = tested on: CTGF gene expression in cultured human trabecular meshwork (TM) cells; assay: Inhibition of TGFβ2 stimulated CTGF gene expression (QPCR, CTGF/18S cDNA); format: cell-based
Experimental: FIGS. 1-3 are graphs setting forth the effects of statins on basal and TGFβ2-induced CTGF gene expression in cultured human trabecular meshwork cells.
The effectiveness of statins on CTGF gene expression in cultured human trabecular meshwork (TM) cells was studied. In these experiments, the CTGF/18S cDNA levels were measured by quantitative reverse-transcription PCR (QPCR) and compared.

[5] = tested on: intraocular pressure; settings: administered orally for at least one year; cited from earlier work
[6] = tested on: GTM-3 cells; assay: GTM-3 cell viability (neutral red uptake); format: cell-based, human; settings: 24 h, FIG. 5
Experimental: as §1, §2

[7] = tested on: intraocular pressure; assay: IOP response in lasered (hypertensive) eyes of conscious cynomolgus monkeys following repeated dosing; format: in vivo, cynomolgus monkey
Experimental: Response in Lasered (Hypertensive) Eyes of Conscious Cynomolgus Monkeys Following Repeated Dosing.
In a further study, the intraocular pressure-lowering efficacy of lovastatin was measured in conscious ocular hypertensive monkeys using a five-dose, three-day study design. The test item was administered in one 30 μL aliquot to the lasered (unilateral laser trabeculoplasty) eye of eight animals. The vehicle was instilled in the lasered eyes of six additional animals as a control. Doses 1, 3, and 5 were instilled at 0900 hours on three consecutive days; doses 2 and 4 at 1630 hours on days 1 and 2. IOP was measured at 1, 3 and 6 hours after doses 1 and 5. IOP was also measured at 16 hours after dose 4. The percent change from time 0 baseline was determined for each animal for every IOP measurement.
There was an average reduction in IOP of 12.5% in the control group. In a subsequent study, wherein nine doses of lovastatin were administered over a five day period, IOP was reduced by up to 7.4%.

[8] = 1 hour after fifth topical ocular instillation of 300 μg
[9] = 3 hours after fifth topical ocular instillation of 300 μg
[10] = 6 hours after fifth topical ocular instillation of 300 μg

Compound | IOP lowering after single topical ocular application [1] | ability to reach intraocular tissues via penetration of the cornea [2] | CTGF gene expression by cultured human TM cells [4] | change in intraocular pressure in patients [5] | further results
CC(C)c1c(C(=O)Nc2ccccc2)c(-c2ccccc2)c(-c2ccc(F)cc2)n1CC[C@@H](O)C[C@@H](O)CC(=O)O (relative stereo) [atorvastatin, (βR,δR)-2-(4-fluorophenyl)-β,δ-dihydroxy-5-(1-methylethyl)-3-phenyl-4-[(phenylamino)carbonyl]-1H-Pyrrole-1-heptanoic acid] | did not significantly lower IOP | do not readily penetrate the cornea | – | – | –
CC(C)n1c(/C=C/[C@@H](O)C[C@@H](O)CC(=O)O)c(-c2ccc(F)cc2)c2ccccc21 (relative stereo) [fluvastatin, (3R,5S,6E)-rel-7-[3-(4-fluorophenyl)-1-(1-methylethyl)-1H-indol-2-yl]-3,5-dihydroxy-6-heptenoic acid] | did not significantly lower IOP | – | – | – | –
CC[C@H](C)C(=O)O[C@H]1C[C@H](O)C=C2C=C[C@H](C)[C@H](CC[C@@H](O)CC(O)CC(=O)O)[C@H]21 (stereo in doubt) [pravastatin, (βR,δR,1S,2S,6S,8S,8aR)-1,2,6,7,8,8a-hexahydro-β,δ,6-trihydroxy-2-methyl-8-[(2S)-2-methyl-1-oxobutoxy]-1-naphthaleneheptanoic acid] | did not significantly lower IOP | able to reach intraocular tissues via penetration of the cornea | – | – | –
CC[C@H](C)C(=O)O[C@H]1C[C@@H](C)C=C2C=C[C@H](C)[C@H](CC[C@@H]3C[C@@H](O)CC(=O)O3)[C@H]21 [lovastatin, 2(S)-2-methyl-butanoic acid (1S,3R,7S,8S,8aR)-1,2,3,7,8,8a-hexahydro-3,7-dimethyl-8-[2-[(2R,4R)-tetrahydro-4-hydroxy-6-oxo-2H-pyran-2-yl]ethyl]-1-naphthalenyl ester] | did not significantly lower IOP | – | significantly reduce | no clinically significant change in intraocular pressure | TGFβ2-stimulated fibronectin secretion ([3]; serum-free media): suppressed; basal fibronectin secretion ([3]; vehicle (basal)): suppression; IC50 ([4]; dose-dependent, FIG. 3): 75 nM; GTM-3 cell viability [6]: without affecting cell viability; average IOP lowering [7, 8]: 8.3 mmHg; average IOP lowering, percent change from baseline [7, 8]: 22.8%; average IOP lowering [7, 9]: 8.1 mmHg; average IOP lowering, percent change from baseline [7, 9]: 21.5%; average IOP lowering [7, 10]: 9.5 mmHg; average IOP lowering, percent change from baseline [7, 10]: 25.5%; IOP reduction ([7]; subsequent study, nine doses over a five day period): up to 7.4%
CC[C@H](C)C(=O)O[C@H]1CCC=C2C=C[C@H](C)[C@H](CC[C@@H]3C[C@@H](O)CC(=O)O3)[C@H]21 [mevastatin, (2S)-2-methyl butanoic acid (1S,7S,8S,8aR)-1,2,3,7,8,8a-hexahydro-7-methyl-8-[2-[(2R,4R)-tetrahydro-4-hydroxy-6-oxo-2H-pyran-2-yl]ethyl]-1-naphthalenyl ester] | – | – | significantly reduce | – | –
CCC(C)(C)C(=O)O[C@H]1C[C@@H](C)C=C2C=C[C@H](C)[C@H](CC[C@@H]3C[C@@H](O)CC(=O)O3)[C@H]21 [simvastatin, 2,2-dimethyl-butanoic acid (1S,3R,7S,8S,8aR)-1,2,3,7,8,8a-hexahydro-3,7-dimethyl-8-[2-[(2R,4R)-tetrahydro-4-hydroxy-6-oxo-2H-pyran-2-yl]ethyl]-1-naphthalenyl ester] | – | – | significantly reduce | no clinically significant change in intraocular pressure | –
